In this assay the target is T1, VP16-PYLcs and Gal4 DBD-ABIcs (Arabidopsis thaliana, UniProt Q8VZS8).
T1 construct: HA (from the reverse primer); expressed in transfected cells; host or cells: CHO; also HEK 293/293T, NIH3T3, COS7, B35, Jurkat, E14, TC1, MEF
T1 sequence (Q8VZS8 33-209): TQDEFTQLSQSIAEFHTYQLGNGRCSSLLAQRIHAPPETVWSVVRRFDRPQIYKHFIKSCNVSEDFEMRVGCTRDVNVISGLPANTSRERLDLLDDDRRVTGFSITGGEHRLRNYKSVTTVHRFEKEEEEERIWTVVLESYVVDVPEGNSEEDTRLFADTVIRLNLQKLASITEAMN
T1 sequence (P49597 126-423 partner): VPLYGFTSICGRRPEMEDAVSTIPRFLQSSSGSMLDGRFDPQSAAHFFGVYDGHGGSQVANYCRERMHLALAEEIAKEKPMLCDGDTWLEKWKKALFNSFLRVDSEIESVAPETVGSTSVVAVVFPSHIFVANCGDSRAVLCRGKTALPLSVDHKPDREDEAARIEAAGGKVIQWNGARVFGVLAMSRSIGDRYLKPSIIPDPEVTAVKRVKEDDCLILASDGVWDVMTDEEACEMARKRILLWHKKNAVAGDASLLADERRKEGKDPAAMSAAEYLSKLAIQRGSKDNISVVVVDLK
The assay is described as follows: ABA-induced luciferase activation (ABA-activator cassette + UAS-luciferase reporter). It is filed as cell-based. The text has this: Activation construct: A fragment of PYL1 (one of PYR/PYL/RCAR members) (aa 33-209, also referred to as “PYLcs”) was linked to a transcriptional activation domain and a fragment of ABI1 (one of PP2C members) (aa 126-423, SEQ ID NO:2, also referred to as “ABIcs”) was linked to a DNA binding domain using recombinant DNA methods. In the constructs illustrated in FIG. 1 and FIG. 2, PYL1 (“PYLcs”) is fused to the VP16 activation domain and ABI1 (“ABIcs”) is fused to the Gal4 DNA binding domain. These two regulatory elements are linked by IRES and driven by the SV40 early promoter. Reporter constructs: Full length Luciferase is driven by Fos gene minimal promoter with 5 copies of Gal4 DNA binding sites immediately upstream of Fos promoter. GFP reporter is driven by IL2 minimal promoter with 5×Gal4 DNA binding sites upstream.
CHO, HEK 293T, NIH 3T3, B35, MEF, and COS7 cells were cultured in Dulbecco's modified Eagle's medium (DMEM) (Gibco) with 10% FBS (Omega Scientific), 1× glutamate (Gibco), and 1× penicillin/streptomycin (Pen/Strep; Gibco). Jurkat cells were cultured in RPMI 1640 (Gibco) with 10% FBS, 1× glutamate, and 1×Pen/Strep. E14 and TC1 were cultured in Knockout DMEM (Gibco) with 7.5% ES FBS (Applied Stem Cell), 7.5% knockout SR (Gibco), 1× Hepes (Gibco), 1× sodium pyruvate (Gibco), 1×MEM NEAA (nonessential amino acids; Gibco), 1×2-mercaptoethanol (Gibco), 1× glutamate, 1×Pen/Strep, and leukemia inhibitory factor (LIF) on gelatin (Millipore)-coated plates. Cells (50,000 to 200,000) were plated in a well of a 24-well plate the day before transfection. An amount of 0.1 to 0.5 μg of DNA of each construct was mixed with 50× (v/w) Opti-MEM (Gibco), and then 3× (v/w) FuGENE HD (Roche) was added and thoroughly mixed. After incubation at room temperature for 20 min, the mixture was added to the cells and cultured for 24 to 48 hours before experiments were performed.
Cells in 24-well plates were lysed with 100 μl of 1× Passive Lysis Buffer (Promega) at room temperature for 10 min on a shaker (˜80 rpm). Cell lysates were then spun down (16,000 g) and 10 μl of supernatant was used for luciferase assay. Luciferase substrate solution [100 μl; 5 mg of D-luciferin (BD Biosciences) and 7 mg of coenzyme A (Sigma) in 33 ml of luciferase reading buffer: 20 mM tricine, 1.07 mM (MgCO3)4Mg(OH)2.5H2O, 2.67 mM MgSO4, 0.1 mM EDTA, 33.3 mM dithiothreitol (DTT), and 0.53 mM ATP in water] was added to the cell lysates, and signal was read with a 3-s delay and 1-s integration with a Turner BioSystem Modulus microplate reader. Obtained data were analyzed by Prism 5 (GraphPad Software).
The inducible gene activation module illustrated in FIG. 1 was introduced into a mammalian cell line (CHO, Chinese Hamster Ovary cells) along with a luciferase reporter to test the inducibility of gene activation by ABA, as shown in FIG. 2.
To assay the ability of ABA to induce effective proximity of chimeric proteins, the ability of ABA to reconstitute protein domains was tested. In this strategy, ABA was used to induce the proximity of the yeast Gal4 DNA binding domain (Gal4 DBD) to the herpes simplex virus VP16 transactivation domain (VP16AD) (FIG. 2B). […] The VP16AD, when tethered to DNA binding domains, strongly activates transcription but cannot act without proximity to a DNA binding domain. To test gene activation by ABA-induced proximity of Gal4 DBD and VP16AD, an ABA-activator cassette was constructed by fusing Gal4 DBD to the domain of ABI1 that interacts with PYL1 (the complementary surface of ABI1, or “ABIcs”) and VP16AD to the domain of PYL1 that interacts with ABI1 (the complementary surface of PYL1, or “PYLcs”) (FIG. 2B).
The ABA-induced domain reconstitution leading to induction of gene expression was compared to a similar system in Chinese hamster ovary (CHO) cells controlled by Rap, which has wild-type FKBP12 and Frb replacing ABIcs and PYLcs, respectively, in the chimeric proteins. […]
(In general: Reporter assays use an easily measured gene product as a stand-in for the process of interest.)

Where [1] appears, read: E14 and CHO cells (FIG. 12D, FIG. 19).

Here are results for one compound from patent US20130158098A1, “Alkenyl Substituted Cycloaliphatic Compounds as Chemical Inducers of Proximity” (priority 2010, published 2013).

Structures are written as SMILES.

Take `CC1=CC(=O)CC(C)(C)C1(O)/C=C/C(C)=C/C(=O)O` (centres unmarked) [ABA, abscisic acid]: under “100 μM, 24 hours, CHO, NIH3T3, HEK293T, COS7, B35, Jurkat, E14, TC1, MEF”, the “gene activation in different cell types” value is “observed in all cell types tested”. The “change in protein activity relative to untreated cells (factor)” value (ABA system) is greater than 1000. The “specificity of luciferase induction (ABA vs Rap protein pairs)” value (CHO and NIH 3T3 cells, 24 hours) is “only induced by matching small-molecule and dimerizing protein pairs”. The “relative activation change compared with Rap” value (CHO cells) is reported as “comparable”. Besides, the “reversibility of luciferase transcription upon removal” value (CHO cells, 100 μM for 24 hours then ABA-free media) is reported as “fully reversible”. The “dose response of transactivation” value (CHO cells, 24 hours) was “large linear range”. The “time for gene activation to reverse to background after withdrawal” value (CHO cells, induced 24 hours, washed five times with fresh medium) was no more than 24 h. Under setting [1], the “time at which activation of luciferase was first observed after addition” value came out at 1.5 h and the “time to reach maximum luciferase activation” value was no more than 24 h. In addition, the “relative activation change compared with Rap” value (E14 cells) is given as “much higher”. Besides, the luciferase production induced result (murine embryonic stem (ES) cells, NIH 3T3 and HEK 293T cells, 24 hours) is “more than three orders of magnitude”.
